Measurements published in patent US20240269298A1, “PHOSPHONYL DERIVATIVE, AND COMPOSITION AND PHARMACEUTICAL APPLICATION THEREOF” (XIZANG HAISCO PHARMACEUTICAL CO., LTD., priority 2021, published 2024).
Like-named read-outs stand apart in the source and are kept apart here.

Tested on: NCI-H1975 (EGFR-L858R-T790M) cells
Test: Inhibitory activity on proliferation of NCI-H1975 (EGFR-L858R-T790M) cells (CTG, 72 h)
Type: cell-based
Details: Homo sapiens
Method: NCI-H1975 (EGFR-L858R-T790M) and A431 (EGFR-WT) cells were purchased from ATCC and cultured in an incubator at 37° C. with 5% CO2, and the culture mediums were RPMI1640+10% FBS and DMEM+10% FBS, respectively. On the first day, NCI-H1975 (EGFR-L858R-T790M) and A431 (EGFR-WT) cells in the logarithmic phase were collected, and viable cells were counted using an automatic cell analyzer (countstar). The cell suspensions were adjusted with the culture mediums and plated on a 96-well cell culture plate at 1000 cells/well for NCI-H1975 (EGFR-L858R-T790M) cells and at 3000 cells/well for A431 cells. The next day, the culture mediums were aspirated, and 90 μL of fresh culture mediums and 10 μL of the compounds at different concentrations were added to each well, wherein the final concentration of DMSO in each well was 0.1%. The plate was cultured in the incubator at 37° C. with 5% CO2 for 72 hours. After 72 hours of drug treatment, 50 μL of CTG solution (promega, G7572), which was already pre-melted and equilibrated to room temperature, was added to each well, and the mixtures were uniformly mixed for 2 min using a microplate shaker. The plate was placed at room temperature for 10 min, and then […] signal values were measured using a microplate reader (PHERAstar FSX).
Surviving cells % was calculated based on Vsample/Vvehicle control×100%, wherein Vsample was the readout of the drug-treated group, and Vvehicle control was the average value of the vehicle control group. Using the origin 9.2 software and nonlinear regression model, S-shaped dose-survival curves were plotted, and IC50 values were calculated.

[1] = read-out: IC50 (value in brackets)

SMILES	IC50 (read-out: IC50 (class symbol))	IC50 [1]
COc1cc(N2CCN(CC3CCN(c4ccc(C(=O)NC5CCC(=O)NC5=O)nc4)CC3)CC2)c(-c2cnn(C)c2)cc1Nc1ncc(Cl)c(Nc2ccc(-c3ccccc3)cc2P(C)(C)=O)n1 (centres unmarked) [Compound 124, 5-(4-((4-(4-((5-chloro-4-((3-(dimethylphosphoryl)-[1,1′-biphenyl]-4-yl)amino)pyrimidin-2-yl)amino)-5-methoxy-2-(1-methyl-1H-pyrazol-4-yl)phenyl)piperazin-1-yl)methyl)piperidin-1-yl)-N-(2,6-dioxopiperidin-3-yl)picolinamide]	< 100 nM	71 nM
COc1cc(N2CCC(CN3CCCC4(CCN(c5ccc6c(c5)C(=O)N(C5CCC(=O)NC5=O)C6=O)CC4)C3)CC2)c(-c2cnn(C)c2)cc1Nc1ncc(Cl)c(Nc2ccc(-c3ccccc3)cc2P(C)(C)=O)n1 (centres unmarked) [Compound 49, 5-(2-((1-(4-((5-chloro-4-((3-(dimethylphosphoryl)-[1,1′-biphenyl]-4-yl)amino)pyrimidin-2-yl)amino)-5-methoxy-2-(1-methyl-1H-pyrazol-4-yl)phenyl)piperidin-4-yl)methyl)-2,9-diazaspiro[5.5]undecan-9-yl)-2-(2,6-dioxopiperidin-3-yl)isoindoline-1,3-dione]	100 to 500 nM	266 nM
COc1cc(N2CCC(N3CCC4(CCCN(c5cc6c(cc5F)C(=O)N(C5CCC(=O)NC5=O)C6=O)C4)CC3)CC2)c(-c2cnn(C)c2)cc1Nc1ncc(Br)c(Nc2ccc3nccnc3c2P(C)(C)=O)n1 (centres unmarked) [Compound 33, 5-(9-(1-(4-((5-bromo-4-((5-(dimethylphosphoryl)quinoxalin-6-yl)amino)pyrimidin-2-yl)amino)-5-methoxy-2-(1-methyl-1H-pyrazol-4-yl)phenyl)piperidin-4-yl)-2,9-diazaspiro[5.5]undecan-2-yl)-2-(2,6-dioxopiperidin-3-yl)-6-fluoroisoindoline-1,3-dione]	< 100 nM	28 nM
COc1cc(N2CCC(CN3CCN(c4ccc(C5CCC(=O)NC5=O)c(F)c4)CC3)CC2)c(-c2cnn(C)c2)cc1Nc1ncc(Cl)c(Nc2ccc(-c3ccccc3)cc2P(C)(C)=O)n1 (centres unmarked) [Compound 156, 3-(4-(4-((1-(4-((5-chloro-4-((3-(dimethylphosphoryl)-[1,1′-biphenyl]-4-yl)amino)pyrimidin-2-yl)amino)-5-methoxy-2-(1-methyl-1H-pyrazol-4-yl)phenyl)piperidin-4-yl)methyl)piperazin-1-yl)-2-fluorophenyl)piperidine-2,6-dione]	< 100 nM	64 nM
COc1cc(N2CCC(CN3CCC4(CCCN(c5ccc6c(c5)C(=O)N(C5CCC(=O)NC5=O)C6=O)C4)CC3)CC2)c(-c2cnn(C)c2)cc1Nc1ncc(Cl)c(Nc2ccc3nccnc3c2P(C)(C)=O)n1 (centres unmarked) [Compound 10, 5-(9-((1-(4-((5-chloro-4-((5-(dimethylphosphoryl)quinoxalin-6-yl)amino)pyrimidin-2-yl)amino)-5-methoxy-2-(1-methyl-1H-pyrazol-4-yl)phenyl)piperidin-4-yl)methyl)-2,9-diazaspiro[5.5]undecan-2-yl)-2-(2,6-dioxopiperidin-3-yl)isoindoline-1,3-dione]	< 100 nM	13 nM
COc1cc(N2CCC(N3CCC(CN4CCCC5(CCN(c6ccc7c(c6)C(=O)N(C6CCC(=O)NC6=O)C7=O)CC5)C4)CC3)CC2)c(-c2cnn(C)c2)cc1Nc1ncc(Cl)c(Nc2ccc3nccnc3c2P(C)(C)=O)n1 (centres unmarked) [Compound 17, 5-(2-((1′-(4-((5-chloro-4-((5-(dimethylphosphoryl)quinoxalin-6-yl)amino)pyrimidin-2-yl)amino)-5-methoxy-2-(1-methyl-1H-pyrazol-4-yl)phenyl)-[1,4′-bipiperidin]-4-yl)methyl)-2,9-diazaspiro[5.5]undecan-9-yl)-2-(2,6-dioxopiperidin-3-yl)isoindoline-1,3-dione]	100 to 500 nM	
